According to PMC7307922 (Journal of Medicinal Chemistry, 2020):
Positions count from the first letter of the chain named.

How the values were obtained:
[1] = biological target: T1, hFFA3 (Homo sapiens, UniProt O14843); experiment: biochemical; conditions: for GTPγS pEC50: hFFA3, mean of ≥3 independent experiments ± standard error; for Emax: read-out: GTPγS Emax
T1 sequence (O14843 1-346): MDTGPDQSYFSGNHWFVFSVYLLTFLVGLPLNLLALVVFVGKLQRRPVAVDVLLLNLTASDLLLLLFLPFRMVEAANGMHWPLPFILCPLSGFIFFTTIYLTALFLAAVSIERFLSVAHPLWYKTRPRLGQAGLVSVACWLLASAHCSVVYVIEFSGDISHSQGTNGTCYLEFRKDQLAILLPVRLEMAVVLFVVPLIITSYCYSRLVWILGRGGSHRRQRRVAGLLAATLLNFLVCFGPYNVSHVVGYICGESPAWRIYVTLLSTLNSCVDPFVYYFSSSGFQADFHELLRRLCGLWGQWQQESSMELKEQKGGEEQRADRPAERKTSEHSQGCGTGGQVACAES
How it was run: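 Membranes from doxycycline (100 ng/mL)-induced Flp-In T-REx HEK293 cells expressing FFA3 incubated with [^35S]GTPγS (50 nCi/tube) 1 h at 25 °C. Bound [^35S]GTPγS collected by filtration and counted by liquid scintillation as a measure of Gi/o activation.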

[2] = biological target: T2, hFFA3 R71A (Homo sapiens, UniProt O14843, R71A); experiment: Potency at FFA3 mutant R71A; format: cell-based
T2 sequence (O14843 1-346 R71A): T1 sequence (O14843 1-346) with R71A
Protocol: The previously published compound 1 was not affected by mutation of either R185A or R258A in the orthosteric binding site, and the compounds were therefore believed to be allosteric modulators. […] After the publication of the FFA1 crystal structure in complex with an allosteric agonist located in the TM region close to the intracellular site,[32] a homology model of hFFA3 was constructed using Modeller. […] Thus, additional docking of (R)-1 in this site were performed to find poses where Q131, but not R126, show a central role in binding. […] The narrow binding cavity around the core scaffold is in agreement with the restrained SAR observed for this series and the furan moiety pointing out of the binding cavity might explain the flexibility in substituents at this site (Figure 3c,d). Although Q131A impacts the potency of (R)-1 with high significance, the magnitude of the effect is lower than what would be generally expected for the removal of a hydrogen bond interaction; thus, additional studies are required to confirm the proposed binding site.

[3] = tested on: FFA3 R185A; set-up: method as in PMID 24870406; conditions: orthosteric binding site; cited from earlier work
[4] = tested on: FFA3 R258A; set-up: method as in PMID 24870406; conditions: orthosteric binding site; cited from earlier work
[5] = biological target: T3, mFFA3 (Mus musculus, UniProt Q3UFD7); experiment: biochemical
T3 sequence (Q3UFD7 1-319): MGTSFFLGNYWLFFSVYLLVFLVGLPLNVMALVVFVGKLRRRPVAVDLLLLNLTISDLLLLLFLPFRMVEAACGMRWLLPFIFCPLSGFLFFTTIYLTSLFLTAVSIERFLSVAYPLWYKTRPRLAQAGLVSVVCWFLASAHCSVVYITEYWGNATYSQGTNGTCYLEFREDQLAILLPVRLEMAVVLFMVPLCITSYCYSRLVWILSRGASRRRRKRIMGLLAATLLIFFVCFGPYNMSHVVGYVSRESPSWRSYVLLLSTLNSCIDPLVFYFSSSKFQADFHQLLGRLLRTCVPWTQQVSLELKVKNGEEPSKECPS
Protocol: Reactions were initiated with the addition of [^35S]GTPγS at 50 nCi per tube; reactions were terminated after 1 h of incubation at 25 °C by rapid filtration through GF/C glass filters using a 24-well Brandel cell harvester (Alpha Biotech, Glasgow, UK). Unbound radioligand was removed from filters by washing three times with ice-cold wash buffer (50 mM Tris–HCl, pH 7.4, and 10 mM MgCl2), and [^35S]GTPγS binding was determined by liquid scintillation spectrometry.

[6] = tested on: cells dissociated from mouse dorsal root ganglia; experiment: Intracellular calcium in dorsal root ganglion cells of wild-type and FFA3 KO mice; format: cell-based; conditions: 5 μM; DRG cells of wild type vs FFA3 KO mice
Protocol: Colonic innervating DRGs were isolated from the T9-L2 region of the spinal cord of C57/BL6 mice and from FFA3 knock-out animals and immediately placed in cold Hanks’ balanced salt solution (HBSS; Sigma-Aldrich). Isolated DRGs were initially digested with HBSS containing L-cysteine (0.3 mg/mL) and papain (2.0 mg/mL) for 20 min at 37 °C. The solution was removed and replaced with HBSS contain collagenase (4.0 mg/mL) and dispase (4.0 mg/mL) (20 min at 37 °C) for further digestion. The collagenase solution was then replaced with DMEM to stop the reaction. The DRGs were finally dissociated by mechanical trituration using a pipette. Dissociated cells were plated on matrigel-coated coverslips and placed in an incubator (37 °C and 5% CO2). Following a 2 h incubation, cells were flooded with 90% DMEM (Sigma) supplemented with 10% fetal calf serum and 1% PenStrep and further incubated overnight at 37 °C and 5% CO2.
To measure intracellular calcium and its potential regulation, dissociated cells on the coverslips were loaded with Fura 8-AM (3 μM) (Stratech Scientific Limited) for 20 min at 37 °C in the dark. […]

[7] = Chemical stability in DMSO (NMR); format: physicochemical
Protocol: To further ensure the suitability of 57 as a tool compound for in vitro studies, the chemical stability was also evaluated in dimethyl sulfoxide (DMSO).

Structure (SMILES): CC1=C(C(=O)Nc2ccccc2C)C(c2ccco2)C2=C(CCCC2=O)N1 (stereo not shown) [Compound 1, 4-(Furan-2-yl)-2-methyl-5-oxo-N-(o-tolyl)-1,4,5,6,7,8-hexahydroquinoline-3-carboxamide, reference compound]
- higher potency than 3-furyl derivative 2 ([1]; GTPγS assay): approximately 2 fold
- GTPγS pEC50 [1]: 5.65 ± 0.07
- Emax [1]: 100%
- effect of mutation R71A on potency [2]: did not affect
- effect of mutation R185A [3]: not affected
- effect of mutation R258A [4]: not affected

Structure (SMILES): CC1=C(C(=O)Nc2cc(Cl)ccc2Cl)C(c2ccco2)C2=C(CCCC2=O)N1 (stereo not shown) [Compound 16, reference compound]
- GTPγS pEC50 [1]: 5.74 ± 0.11
- Emax [1]: 120%

Structure (SMILES): CCCC1C(C(=O)Nc2cc(Cl)ccc2Cl)=C(C)NC2=C1C(=O)CCC2 (stereo not shown) [Compound 57, N-(2,5-Dichlorophenyl)-2-methyl-5-oxo-4-propyl-1,4,5,6,7,8-hexahydroquinoline-3-carboxamide]
- EC50 [5]: 2000 nM
- elevation of intracellular calcium levels [6]: large elevation in intracellular calcium levels in wild type but not FFA3 KO cells
- chemical stability in DMSO ([7]; 4 °C, after 1 and 30 days, NMR): complete stability
- chemical stability in DMSO ([7]; rt, not protected from light, 7 days): fully stable
- chemical stability in DMSO ([7]; rt, not protected from light, 30 days): minor decomposition
